Measured values: article PMC9408963 (International Journal of Molecular Sciences, 2022)
In brackets after ≈: the same amount, converted by molar mass. Several values for one entry are separate records, joined by “and”; a condition that tells them apart may be missing. Identical values can stand only once. Counter-ions that a name gives are not always drawn. Like-named read-outs stand apart in the source and are kept apart here.

Key:
[1] = test system: Xanthomonas oryzae pv. oryzae (Xoo); assay: microbe, parasite or virus in culture; format: cell-based; settings: for EC50 / inhibition at 20 µg/mL / inhibition at 100 µg/mL: Xanthomonas oryzae; for EC50: read-out: EC50 for inhibition of Xoo growth; for inhibition at 20 µg/mL / inhibition at 100 µg/mL: read-out: Inhibition (%) of Xoo growth
[2] = test system: Xanthomonas oryzae pv. oryzae (Xoo); assay: microbe, parasite or virus in culture; format: cell-based; settings: for MIC: Xanthomonas oryzae
XooFtsZ [3] = format: binding, Xanthomonas oryzae pv. oryzae; settings: pH 7.4
[4] = test system: rice bacterial leaf blight infected by Xoo; format: in vivo; parameters: curative control efficiency against rice bacterial leaf blight: dose or concentration left out as unconfirmed
[5] = target: T1, recombinant XooFtsZ GTPase (Xanthomonas oryzae pv. oryzae, UniProt A0ACG7R862); assay: biochemical; settings: for inhibition at 100 µM / inhibition at 200 µM: read-out: Inhibition Rate (%) of XooFtsZ GTPase activity
Xoo cells = format: cell-based, Xanthomonas oryzae pv. oryzae; parameters: average Xoo cell length: unit not given here; settings: TEM
XooFtsZ [6] = format: biochemical, Xanthomonas oryzae pv. oryzae; settings: TEM, 20 μM XooFtsZ, 100 and 200 μM compound
rice plants = settings: in vivo
[7] = test system: human non-small cell lung cancer cell line (A549)
in vitro = settings: rat
[8] = target: T1, recombinant XooFtsZ GTPase; settings: read-out: IC50 XooFtsZ GTPase activity; cited from earlier work
[9] = test system: rice bacterial leaf blight infected by Xoo; settings: in vivo; cited from earlier work
[10] = read-out: MIC against Xoo, in vitro

COc1cc([C@@H]2c3cc4c(cc3C[C@H]3COC(=O)[C@@H]32)OCO4)cc(OC)c1OC [Deoxypodophyllotoxin]
EC50 [1]: > 200 µg/mL
inhibition at 20 µg/mL [1]: 12.2 ± 4.8%
inhibition at 100 µg/mL [1]: 10.3 ± 3.5%
MIC [2, 10]: > 400 µg/mL
Stern–Volmer quenching constant Kq (XooFtsZ [3]; 10 μM XooFtsZ, 25 °C): 2.276 × 10^11 M^−1 S^−1
Stern–Volmer quenching constant Ksv (XooFtsZ [3]; 10 μM XooFtsZ, 25 °C): 2276 M⁻¹

Nc1nnc([S-])s1.Nc1nnc([S-])s1.[Cu+2] [TC, Thiodiazole copper]
curative control efficiency against rice bacterial leaf blight ([4]; in vivo): 31.2%
protective control efficiency against rice bacterial leaf blight ([4]; in vivo): 30.4%

COc1cc(C2c3cc4c(cc3C(O)C3COC(=O)C23)OCO4)cc(OC)c1O (stereo not shown) [DMEOP, 4′-demethylpodophyllotoxin]
EC50 for inhibition of Xoo growth [1]: >200 µg/mL
MIC against Xoo [2]: >400 µg/mL
Stern–Volmer quenching constant Kq (XooFtsZ [3]): 1.757 × 10^11 M^−1 S^−1
Stern–Volmer quenching constant Ksv (XooFtsZ [3]): 1757 M⁻¹

CCCCC(CC)C(=O)Oc1c(OC)cc(C2c3cc4c(cc3C(O)C3COC(=O)C23)OCO4)cc1OC (stereo not shown) [B2]
EC50 [1]: 153 ± 9.2 µg/mL (≈ 291 µM)
inhibition at 20 µg/mL [1]: 7.3 ± 2.2%
inhibition at 100 µg/mL [1]: 44.2 ± 3.2%
IC50 [5]: 159 ± 16.7 µM
inhibition at 100 µM [5]: 48.6 ± 4.1%
inhibition at 200 µM [5]: 54.8 ± 5.2%
Stern–Volmer quenching constant Kq (XooFtsZ [3]; 10 μM XooFtsZ, 25 °C): 3.845 × 10^11 M^−1 S^−1
Stern–Volmer quenching constant Ksv (XooFtsZ [3]; 10 μM XooFtsZ, 25 °C): 3845 M⁻¹
average Xoo cell length (Xoo cells; 100 mg L^−1, 12 h): 4.03 ± 2.20
average Xoo cell length (Xoo cells; 100 mg L^−1, 24 h): 5.86 ± 3.23
curative control efficiency against rice bacterial leaf blight ([4]; pot experiments): 54.9%
protective control efficiency against rice bacterial leaf blight ([4]; pot experiments): 48.4%
effect on XooFtsZ self-assembly (XooFtsZ [6]): fewer single-stranded protofilaments and an increase in disordered and disorganized protein aggregation
phytotoxicity to rice plants (rice plants): non-toxic
cytotoxicity (comparison) [7]: more cytotoxic than either DMEP or gefitinib
IC50 (in vitro): 60.8 µM

COc1cc(C2c3cc4c(cc3C(O)C3COC(=O)C23)OCO4)cc(OC)c1OS(=O)(=O)c1ccc(C)cc1 (stereo not shown) [B3]
EC50 [1]: > 200 µg/mL
inhibition at 20 µg/mL [1]: 4.33 ± 0.8%
inhibition at 100 µg/mL [1]: 10.2 ± 1.2%
MIC [2, 10]: > 400 µg/mL

COc1ccc2cc3[n+](cc2c1OC)CCc1cc2c(cc1-3)OCO2 [Berberine, Berberine hydrochloride]
IC50 [5]: 225 ± 18.5 µM
inhibition at 100 µM [5]: 34.1 ± 2.6%
inhibition at 200 µM [5]: 48.7 ± 4.1%
Stern–Volmer quenching constant Kq (XooFtsZ [3]; 10 μM XooFtsZ, 25 °C): 1.789 × 10^12 M^−1 S^−1
Stern–Volmer quenching constant Ksv (XooFtsZ [3]; 10 μM XooFtsZ, 25 °C): 17890 M⁻¹

COc1cc([C@@H]2c3cc4c(cc3[C@H](O)[C@H]3COC(=O)[C@H]23)OCO4)cc(OC)c1OC [Podophyllotoxin]
EC50 [1]: > 200 µg/mL
MIC ([2]; read-out: MIC against Xoo): > 400 µg/mL
Stern–Volmer quenching constant Kq (XooFtsZ [3]): 2.203 × 10^11 M^−1 S^−1
Stern–Volmer quenching constant Ksv (XooFtsZ [3]): 2203 M⁻¹

COc1cc([C@@H]2c3cc4c(cc3[C@@H](O[C@@H]3O[C@@H]5CO[C@@H](C)O[C@H]5[C@H](O)[C@H]3O)[C@H]3COC(=O)[C@H]23)OCO4)cc(OC)c1O [Etoposide]
EC50 [1]: > 200 µg/mL
inhibition at 100 µg/mL [1]: 18.8 ± 9.6%
MIC [2, 10]: > 400 µg/mL
Stern–Volmer quenching constant Kq (XooFtsZ [3]; 10 μM XooFtsZ, 25 °C): 2.396 × 10^11 M^−1 S^−1
Stern–Volmer quenching constant Ksv (XooFtsZ [3]; 10 μM XooFtsZ, 25 °C): 2396 M⁻¹
effect on Xoo cell morphology (Xoo cells; 100 mg L^−1, 24 h): induced cellular elongation

CCC(CC)C(=O)Oc1c(OC)cc(C2c3cc4c(cc3C(O)C3COC(=O)C23)OCO4)cc1OC (stereo not shown) [B1]
EC50 [1]: > 200 µg/mL
inhibition at 20 µg/mL [1]: 5.33 ± 1.13%
inhibition at 100 µg/mL [1]: 17.4 ± 6%
MIC [2, 10]: > 400 µg/mL

COc1cc([C@@H]2c3cc4c(cc3[C@@H](O)[C@H]3COC(=O)[C@H]23)OCO4)cc(OC)c1O [DMEP, 4′-demethylepipodophyllotoxin]
EC50 for inhibition of Xoo growth [1]: 39.7 µg/mL and 38.7 µg/mL
MIC against Xoo [2]: 50 µg/mL (≈ 125 µM)
Stern–Volmer quenching constant Kq (XooFtsZ [3]): 7.593 × 10^11 M^−1 S^−1
Stern–Volmer quenching constant Ksv (XooFtsZ [3]): 7593 M⁻¹
IC50 [8]: 279 µM and 278 µM
curative control efficiency against rice bacterial leaf blight [9]: 50.0%
protective control efficiency against rice bacterial leaf blight [9]: 46.8%

COc1cc([C@@H]2c3cc4c(cc3[C@H](O)[C@H]3COC(=O)[C@@H]23)OCO4)cc(OC)c1OC [Picropodophyllotoxin]
EC50 [1]: > 200 µg/mL
MIC ([2]; read-out: MIC against Xoo): > 400 µg/mL
Stern–Volmer quenching constant Kq (XooFtsZ [3]): 3.603 × 10^11 M^−1 S^−1
Stern–Volmer quenching constant Ksv (XooFtsZ [3]): 3603 M⁻¹

COc1cc(C2c3cc4c(cc3C(O)C3COC(=O)C23)OCO4)cc(OC)c1OCC1CO1 (stereo not shown) [A1]
EC50 [1]: > 200 µg/mL
inhibition at 20 µg/mL [1]: 10.6 ± 0.9%
inhibition at 100 µg/mL [1]: 18.3 ± 2.15%
MIC [2, 10]: > 400 µg/mL

COc1cc([C@@H]2c3cc4c(cc3[C@@H](O[C@@H]3O[C@@H]5CO[C@@H](c6cccs6)O[C@H]5[C@H](O)[C@H]3O)[C@H]3COC(=O)[C@H]23)OCO4)cc(OC)c1O [Teniposide]
EC50 [1]: > 200 µg/mL
inhibition at 100 µg/mL [1]: 20.3 ± 9.21%
MIC [2, 10]: > 400 µg/mL
Stern–Volmer quenching constant Kq (XooFtsZ [3]; 10 μM XooFtsZ, 25 °C): 2.920 × 10^11 M^−1 S^−1
Stern–Volmer quenching constant Ksv (XooFtsZ [3]; 10 μM XooFtsZ, 25 °C): 2920 M⁻¹
effect on Xoo cell morphology (Xoo cells; 100 mg L^−1, 24 h): induced cellular elongation

S=c1[nH]nc(NCNc2n[nH]c(=S)s2)s1 [BT, bismerthiazol]
Inhibition (%) of Xoo growth ([1]; 20 mg L^−1): 30.0 ± 2.20%
Inhibition (%) of Xoo growth ([1]; 100 mg L^−1): 92.7 ± 1.70%
EC50 for inhibition of Xoo growth ([1]; in vitro): 36.3 ± 2.50 µg/mL
MIC against Xoo ([2]; in vitro): 50 µg/mL (≈ 180 µM)
